# Structures can show the parent of a compound that is named as a salt.
# Columns and labels:
# [1] = PAMPA-BBB permeation assay; type: in vitro ADME, porcine; settings: pig, PBS/EtOH (70:30), mean ± SD, read-out: Permeability Pe
# Method: In vitro Blood-Brain Barrier Permeation Assay
# To evaluate the brain penetration of the different compounds, a parallel artificial membrane permeation assay for blood-brain barrier was used, following the method described by Di et al.1 The in vitro permeability (Pe) of fourteen commercial drugs (see Table S1) through lipid extract of porcine brain membrane together with the test compounds were determined. Commercial drugs and assayed compounds were tested using a mixture of PBS:ETOH (70:30). Assay validation was made by comparing the experimental permeability with the reported values of the commercial drugs by bibliography and lineal correlation between experimental and reported permeability of the fourteen commercial drugs using the parallel artificial membrane permeation […]
# From this equation and taking into account the limits established by Di et al. for BBB permeation, we established the ranges of permeability […]
# predictive penetration in the CNS used as references.
# 1 Di, L.; Kerns, E. H.; Fan, K.; McConnell, O. J.; and Carter, G. T. High throughput artificial membrane permeability assay for blood-brain barrier.
# [2] = target: α2-adrenergic receptor (α2-AR); experiment: Competition binding against [3H]RX821002, membranes from post-mortem human frontal cortex
# From the text: (§1) The inhibition constant (Ki) for each compound was obtained and is expressed as the corresponding pKi. The selectivity for these two receptors was expressed by the I2/α2 index, calculated as the antilogarithm of the […] between pKi values for I2-IR and pKi values for α2-AR.
# (§2) Preparation of cellular membranes.
# (§3) Human brain samples were obtained at autopsy in the Basque Institute of Legal Medicine, Bilbao, Spain. Samples from the prefrontal cortex (Brodmann’s area 9) were dissected at the time of autopsy and immediately stored at -70 °C until assay. The study was developed in compliance with policies of research and ethical review boards for postmortem brain studies.
# (§4) To obtain cellular membranes (P2 fraction) the different samples were homogenized using an ultraturrax in 10 volumes of homogenization buffer (0.25 M sucrose, 5 mM Tris–HCl, pH 7.4).
# (§5) The crude homogenate was centrifuged for 5 min at 1000 g (4 °C) and the supernatant was centrifuged again for 10 min at 40,000 g (4 °C). The resultant pellet was washed twice in 5 volumes of homogenization buffer and recentrifuged in similar conditions. Protein content was measured according to the method of Bradford using BSA as standard.
# (§6) Competition Binding Assays.
# (§7) The pharmacological activity of the compounds was evaluated through competition binding studies against the I2-IR selective radioligand [3H]2-BFI or the α2-adrenergic receptor selective radioligand [3H]RX821002. Specific binding was measured in 0.25 mL aliquots (50 mM Tris-HCl, pH 7.5) containing 100 µg of membranes, which were incubated in 96-well plates either with […]
# (§8) Incubations were terminated by separating free ligand from bound ligand by rapid filtration […]
# (§9) counted for radioactivity by liquid scintillation spectrometry using a MicroBeta TriLux counter (PerkinElmer). Specific binding was determined and plotted as a function of the compound concentration. Nonspecific binding was determined in the presence of idazoxan (10–5 M), a compound with well stablished affinity for I2-IR and α2-adrenergic receptors, in [3H]2-BFI and [3H]RX821002 assays. To obtain the inhibition constant (Ki) analyses of competition experiments were performed by nonlinear regression using the GraphPad Prism program. Ki values were normalized to pKi values. I2-IR/α2 selectivity index was calculated as the antilogarithm of the difference between pKi values for I2-IR and pKi values for α2-ARs.
# [3] = target: imidazoline I2 receptors (I2-IR); experiment: Competition binding against [3H]2-BFI, membranes from post-mortem human frontal cortex; settings: for [3H]-2-BFI I2 pKi (One Site): monophasic fit; for Selectivity I2/α2: antilog (pKi I2-IR − pKi α2-AR); for [3H]-2-BFI I2 pKi (Two Sites), high affinity (pKiH) / [3H]-2-BFI I2 pKi (Two Sites), low affinity (pKiL): two-site model; for [3H]-2-BFI I2 pKi (Two Sites), high affinity (pKiH): high-affinity site; for [3H]-2-BFI I2 pKi (Two Sites), low affinity (pKiL): low-affinity site
# From the text: as §1, §2, §3, §4, §5, §6, §7, §8, §9
Structure (SMILES),Papp [1] [×10⁻⁶ cm/s],[3H]-RX821002 α2 pKi [2],[3H]-2-BFI I2 pKi (One Site) [3],Selectivity I2/α2 [3],"Ki ([3]; corresponds to pKiH, read-out: Ki of the high-affinity I2 site) [nM]","[3H]-2-BFI I2 pKi (Two Sites), high affinity (pKiH) [3]","[3H]-2-BFI I2 pKi (Two Sites), low affinity (pKiL) [3]","pKi (exp) α2 ([2]; Table S3, new ligands and known I2-IR ligands)","pKi (exp) I2 ([3]; Table S2, new ligands and known I2-IR ligands)"
"Cl.c1ccc2nc(-c3ncc[nH]3)ccc2c1 [LSL42, 2-(Quinoline-2-yl)-1H-imidazole hydrochloride]",5.8 ± 0.2,5.32 ± 0.24,5.24 ± 0.12,,,,,,
"c1ccc2oc(C3=NCCN3)cc2c1 [Compound 2-BFI, 2-(2-benzofuranyl)-2-imidazoline]",,4.58 ± 0.22,8.31 ± 0.13,5370,1,9.08 ± 0.22,7.15 ± 0.31,,
"Cl.c1ccc2nc(-n3ccnc3)ccc2c1 [LSL35, 1-(Quinoline-2-yl)-1H-imidazole hydrochloride]",16.2 ± 0.9,5.24 ± 0.26,5.49 ± 0.14,,,,,,
c1ccc(-c2ncc3cc(-n4ccnc4)ccc3n2)cc1 [CR4056],,,5.95 ± 0.11,1995,,,,,
"C(=C\c1ccccc1)/C1=NCCN1 [Tracizoline, reference compound]",,,,,,,,4.330,7.580
c1ccc2c(c1)OCC(C1=NCCN1)O2 (stereo not drawn) [Idazoxan],,7.92 ± 0.07,7.41 ± 0.63,,,7.87 ± 0.74,5.76 ± 0.57,,
"Cl.c1ccc2[nH]c(-n3ccnc3)cc2c1 [LSL29, 2-Imidazol-1-yl-1H-indole hydrochloride]",10.8 ± 0.4,4.99 ± 0.18,4.57 ± 0.23,,,8.54 ± 0.71,4.09 ± 0.22,,
"c1ccc2c(c1)OCC(c1ncc[nH]1)O2 (stereo not drawn) [LSL39, 2-(2,3-Dihydrobenzo[1, 4]dioxin-2-yl)-1H-imidazole hydrochloride]",,3.97 ± 0.25,6.10 ± 0.25,,,,,,
